In the supplement of paper PMC10307832:

Compound: CC1=C(C(=O)N2C=CSC2=N1)CCN3CCC(=C(C4=CC=CC=C4)C5=CC=C(C=C5)F)CC3
Assay: relative viability (nuclei count vs DMSO), 5 days (fraction); higher = more cells survive
Summary of the method: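 On vehicle-anchored 1536-well plates, lung cancer cell lines held overnight at 37 °C were pinned with five library-drug doses (not always all listed) spaced by √10. With no medium change over 5 days, they were then fixed, permeabilised and Hoechst-stained in one step and imaged at 4×. MetaXpress counted nuclei, and viability is the median across plates of treated-well over vehicle-well nuclei. Acceptance needed control CV below 25% and at least one doubling.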

| Cell Line | relative viability (0.08 µM) | relative viability (0.253 µM) | relative viability (0.8 µM) | relative viability (2.53 µM) | relative viability (8 µM) |
| --- | --- | --- | --- | --- | --- |
| 201T | 1.04 | 1.04 | 0.986 | 1.04 | 1.01 |
| A549 | 0.841 | 1.05 | 1.01 | 1.06 | 0.433 |
| A-427 | 0.983 | 1.08 | 0.945 | 1.04 | 0.939 |
| ABC-1 | 1.04 | 0.858 | 0.871 | 0.888 | 0.592 |
| BEN | 0.886 | 1 | 1 | 1.07 | 0.856 |
| CAL-12T | 1.02 | 1.08 | 0.953 | 1.02 | 0.723 |
| COR-L23 | 0.883 | 1.16 | 1.22 | 1.19 | 0.519 |
| COR-L 105 | 0.89 | 0.928 | 0.787 | 0.852 | 0.845 |
| Calu-6 | 0.906 | 1.02 | 1.04 | 1.03 | 0.602 |
| ChaGo-K-1 | 0.86 | 1.1 | 1.06 | 1.09 | 0.623 |
| EKVX | 0.818 | 0.984 | 1.06 | 1.09 | 0.711 |
| EMC-BAC-2 | 1.01 | 0.798 | 0.908 | 1.12 | 0.796 |
| EPLC-272H | 0.832 | 0.914 | 0.864 | 1.03 | 0.743 |
| H3255 | 0.802 | 1.01 | 1.04 | 1.01 | 0.832 |
| HARA | 1.07 | 1.5 | 1.06 | 0.961 | 0.745 |
| HCC-15 | 0.955 | 1.14 | 1.03 | 0.991 | 0.725 |
| HCC-44 | 1.07 | 1.04 | 0.997 | 1.15 | 0.888 |
| HCC-78 | 0.833 | 1.08 | 0.943 | 0.954 | 0.806 |
| HCC-366 | 0.852 | 1.02 | 1.06 | 1.05 | 0.502 |
| HCC-827 | 1.02 | 1.1 | 1.04 | 1.05 | 0.943 |
| HOP-62 | 1.01 | 1.02 | 0.988 | 0.946 | 0.577 |
| LC-2-ad | 1.09 | 0.994 | 0.94 | 1.04 | 0.865 |
| LCLC-97TM1 | 0.921 | 1.07 | 1.02 | 0.874 | 0.91 |
| LCLC-103H | 1.04 | 1.06 | 0.957 | 1.04 | 0.796 |
| LK-2 | 0.955 | 0.902 | 1.07 | 0.998 | 0.658 |
| LOU-NH91 | 1.01 | 0.927 | 0.973 | 1.04 | 0.911 |

| Cell Line | relative viability (0.08 µM) | relative viability (0.253 µM) | relative viability (0.8 µM) | relative viability (2.53 µM) | relative viability (8 µM) |
| --- | --- | --- | --- | --- | --- |
| LU99A | 1.13 | 0.99 | 0.88 | 0.972 | 0.89 |
| LXF-289 | 0.952 | 1.1 | 1.03 | 1.03 | 0.893 |
| NCI-H23 | 1.06 | 1.06 | 0.857 | 0.964 | 0.718 |
| NCI-H322M | 0.89 | 0.91 | 0.877 | 1.09 | 1.08 |
| NCI-H358 | 0.802 | 0.921 | 0.978 | 1.2 | 0.639 |
| NCI-H441 | 0.736 | 1.06 | 1.15 | 1.05 | 0.593 |
| NCI-H460 | 0.923 | 0.956 | 1.06 | 1.04 | 0.567 |
| NCI-H520 | 0.981 | 0.974 | 1.03 | 1.05 | 0.657 |
| NCI-H522 | 1.15 | 1.02 | 0.834 | 0.863 | 0.774 |
| NCI-H596 | 1.02 | 0.964 | 0.981 | 0.952 | 0.852 |
| NCI-H647 | 0.996 | 0.894 | 0.877 | 1.09 | 0.462 |
| NCI-H650 | 0.853 | 0.963 | 0.904 | 1.1 | 0.816 |
| NCI-H661 | 0.851 | 1 | 1.01 | 1.02 | 0.764 |
| NCI-H727 | 0.712 | 1.03 | 0.896 | 1.06 | 0.687 |
| NCI-H838 | 0.779 | 0.998 | 0.987 | 1.22 | 0.704 |
| NCI-H1299 | 1.08 | 1 | 1 | 1.01 | 0.714 |
| NCI-H1355 | 0.961 | 1 | 1.04 | 0.981 | 0.757 |
| NCI-H1395 | 0.953 | 0.992 | 0.762 | 0.992 | 0.872 |
| NCI-H1437 | 0.918 | 1.02 | 1.02 | 1.09 | 0.775 |
| NCI-H1563 | 0.903 | 0.949 | 0.882 | 0.986 | 0.918 |
| NCI-H1648 | 0.797 | 0.802 | 0.802 | 0.706 | 0.883 |
| NCI-H1650 | 0.794 | 0.982 | 0.875 | 0.997 | 0.642 |
| NCI-H1651 | 0.823 | 0.968 | 0.976 | 1.01 | 0.72 |
| NCI-H1666 | 0.936 | 0.941 | 0.978 | 1.06 | 0.815 |
| NCI-H1703 | 1.03 | 0.821 | 0.865 | 1.13 | 0.624 |
| NCI-H1734 | 0.975 | 1.08 | 0.976 | 0.955 | 0.62 |

| Cell Line | relative viability (0.08 µM) | relative viability (0.253 µM) | relative viability (0.8 µM) | relative viability (2.53 µM) | relative viability (8 µM) |
| --- | --- | --- | --- | --- | --- |
| NCI-H1755 | 0.926 | 0.998 | 1.04 | 1.02 | 0.777 |
| NCI-H1792 | 0.759 | 0.825 | 0.942 | 0.856 | 0.403 |
| NCI-H1793 | 0.761 | 0.891 | 0.912 | 0.831 | 0.711 |
| NCI-H1915 | 1.07 | 1 | 1.01 | 1.01 | 0.732 |
| NCI-H1944 | 0.969 | 0.94 | 0.96 | 0.958 | 0.751 |
| NCI-H1975 | 0.893 | 0.961 | 1 | 0.992 | 0.662 |
| NCI-H1993 | 0.972 | 0.816 | 0.862 | 1.03 | 0.866 |
| NCI-H2009 | 1.06 | 1.07 | 0.999 | 1.05 | 0.871 |
| NCI-H2023 | 0.997 | 0.884 | 0.991 | 1.11 | 0.695 |
| NCI-H2085 | 1 | 1.07 | 1.04 | 0.973 | 0.82 |
| NCI-H2087 | 0.878 | 1.22 | 1.13 | 0.933 | 0.62 |
| NCI-H2126 | 0.966 | 0.991 | 1.05 | 1.04 | 0.914 |
| NCI-H2170 | 0.768 | 0.9 | 1.02 | 1 | 0.697 |
| NCI-H2228 | 1.02 | 0.978 | 1.15 | 1.1 | 0.597 |
| NCI-H2342 | 0.761 | 1.03 | 0.949 | 1.02 | 0.792 |
| NCI-H2347 | 0.964 | 1.07 | 1.04 | 1.05 | 0.775 |
| NCI-H2405 | 0.967 | 0.975 | 0.99 | 1.11 | 0.82 |
| NCI-H3122 | 0.951 | 1.04 | 1.01 | 1.12 | 0.715 |
| PC-3 [JPC-3] | 0.987 | 0.939 | 1.04 | 1.08 | 0.839 |
| PC-14 | 0.939 | 1.02 | 1.06 | 1.1 | 0.624 |
| RERF-LC-KJ | 0.932 | 1.01 | 0.964 | 0.989 | 0.662 |
| SK-LU-1 | 0.845 | 0.955 | 1.18 | 1.15 | 0.648 |
| SK-MES-1 | 1.02 | 1.01 | 1.03 | 1.09 | 0.692 |
| SW 900 | 0.89 | 1.02 | 0.883 | 1.04 | 0.595 |
| SW 1573 | 0.892 | 1.12 | 1.08 | 1.04 | 0.61 |
| UMC-11 | 0.914 | 0.952 | 0.936 | 1.17 | 0.713 |
